Assay results reported in patent US6423693B1, “Growth hormone releasing hormone expression system and methods of use, including use in animals” (Baylor College of Medicine, priority 1997, dated 2002).
No end group written: not given here.

Experiments:
[1] = test system: primary pig anterior pituitary cells; assay: GH release from primary pig anterior pituitary culture challenged with conditioned media; format: cell-based; details: 24 h stimulation at 37 C; media from 1 million primary pig myoblasts or media mixed with 10 ng synthetic peptide
Procedure: Primary pig myoblasts culture was obtained as described (Doumit & Merkel, 1992, Tissue & Cell 24:253-262). The cells were plated at a density of 1 million cells/100 mm plate and maintained in growth media for 2-3 days. The cells were passed for 2 times prior to transfection. The transfection and differentiation was made in the same conditions as for the primary chicken myoblast culture. The media and cells were harvested for analysis 48, 72 and 96 h postdifferentiation in both cases. The efficiency of transfection estimated by β-galactosidase histochemistry on control plates was 10%.
One day before harvesting, cells were washed twice in HBSS and changed in MEM, 0.1% BSA. The collected media was conditioned by adding ¼ volumes of 1% triflouroacetic acid (TFA) and 0.001% phenylmethylsulfonylflouride (PMSF), frozen at −80° C., lyophilized, purified on C-18 Sep-Columns (Peninsula Laboratories, CA, USA), relyophilized and used in RIA or resuspended in media conditioned for primary pig anterior pituitary culture. […]
B. In vitro activity of pSK-GHRH. Since anterior pituitary is the natural target of GHRH stimulation, we determined the biological activity of secreted GHRH from the media of pSK-GHRH transfected primary pig myoblasts (FIG. 8). […]

[2] = cited from earlier work
GH release = details: synthetic molecules, Ling et al 1984; cited from earlier work

For “hGHRH (1-44)NH2: synthetic amidated human growth hormone releasing hormone (1-44) (YADAIFTNSYRKVLGQLSARKLLQDIMSRQQGESNQERGARARL-NH2; UniProt P01286 32-75, looked up)”, the GH release [1] was 115 ± 3.2 ng/mL.

For “hGHRH(1-40)OH: Human 1-40 OH growth hormone releasing hormone (YADAIFTNSYRKVLGQLSARKLLQDIMSRQQGESNQERGA-OH)”, the “potency in vivo relative to hGHRH(1-44)NH2” value [2] is given as “same potency in vivo as hGHRH(1-44)NH2”.

For “hGHRH(1-44)OH: non-amidated human GHRH (1-44), Tyr1 to Leu44; the molecule expressed by pSK-GHRH (YADAIFTNSYRKVLGQLSARKLLQDIMSRQQGESNQERGARARL-OH; UniProt P01286 32-75, looked up)”, the “less effective in releasing GH than the (1-44) amidated form” value (GH release) is given as 30%.
